Where two headings read alike, the source gives them in different places. Numbered stars: 1 amine (or outer) side, 2 acyl side, 3 side chain; on linkers, the order of the positions; unused ones are H or OH. Bridge positions count the residues as written; N and C are the ends. Side chains are listed from the residue outwards. Peptide text beside a SMILES is read from it. * marks the point of attachment. C20 diacid = O=C(O)CCCCCCCCCCCCCCCCCCC(=O)*; γGlu = O=C(O)[C@H](CCC(=O)[*:2])N[*:1]
Tests used:
[1] = molecular target: T1, hAMY3R (Homo sapiens, UniProt O60896+P30988); assay: scintillation proximity binding assay, hAMY3R membranes; parameters: expressed in transfected cells; host or cells: BHK tk-ts 13, transient co-transfection; membranes for the SPA, whole cells for the species-specific assays; details: for ratio hCTR/hAMY3R: ratio of binding IC50 values
T1 sequence (P30988 25-474): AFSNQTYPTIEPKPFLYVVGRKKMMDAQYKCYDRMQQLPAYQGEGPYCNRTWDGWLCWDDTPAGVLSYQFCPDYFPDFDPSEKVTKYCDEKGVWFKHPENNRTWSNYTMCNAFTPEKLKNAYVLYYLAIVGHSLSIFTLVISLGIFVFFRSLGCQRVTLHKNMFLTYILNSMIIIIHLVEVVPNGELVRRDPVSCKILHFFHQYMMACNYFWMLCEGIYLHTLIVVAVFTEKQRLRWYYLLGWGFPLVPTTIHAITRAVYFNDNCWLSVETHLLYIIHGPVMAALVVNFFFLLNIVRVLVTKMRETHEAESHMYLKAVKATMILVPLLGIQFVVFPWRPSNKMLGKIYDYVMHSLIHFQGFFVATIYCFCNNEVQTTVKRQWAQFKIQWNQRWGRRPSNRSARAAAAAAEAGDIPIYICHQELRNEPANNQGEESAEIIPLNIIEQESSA
T1 sequence (O60896 24-148 partner): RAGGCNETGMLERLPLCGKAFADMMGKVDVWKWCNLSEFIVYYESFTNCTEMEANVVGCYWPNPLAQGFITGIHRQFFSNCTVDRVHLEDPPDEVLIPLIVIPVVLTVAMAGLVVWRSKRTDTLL
Protocol: (§1) The apparent binding affinities were determined using a scintillation proximity assay with beads from PerkinElmer and cell membranes containing the AMY3R or CTRs. […] Membranes were harvested and membranes were prepared and kept at −80 °C until use. The assay was performed in a 384-well Optiplate (PerkinElmer). Membranes were mixed with scintillation proximity assay beads in a 1:1 ratio. […] Samples were analyzed on a TopCounter (Packard). The IC50 values were calculated using GraphPad Prism. See Supporting Information S7: SAR Screening Assay Methods (Binding Assays (Human and Rat)) for more information.
(§2) Binding Assays (Human and Rat). Brief descriptions of the methods used to determine binding affinities for SAR analysis are described below. Curves and IC50 values were plotted and calculated in GraphPad Prism using nonlinear regression (one site binding competition analysis), with pIC50 values […]
(§3) values were used to calculate the binding affinity ratios in order to express the selectivity of compounds for the AMY3R versus the CTR.
(§4) CTR Binding Assay. The binding assay was performed using scintillation proximity assay (SPA) beads (RPNQ0001) from PerkinElmer and cell membranes containing either the hCTR or rCTR. BHK […]
(§5) Membranes were prepared in the following way: the cells were rinsed with PBS and incubated with Versene for approximately 5 min before harvesting. The cells were flushed with PBS and the cell-suspension was centrifuged for 5 min at 1000 rpm. Cells were homogenized (Ultra Turrax) in a buffer […]
(§6) containing 20 mM Na-HEPES and 0.1 mM EDTA (pH 7.4, buffer 2). The resulting pellet was re-suspended in buffer 2 and protein concentration was measured (BCA protein assay, Pierce). The homogenate was kept cold during the whole procedure. The membranes were stored at –80 °C until […]
(§7) The binding assay was performed in a 384-well Optiplate (PerkinElmer) in a total volume of 40 μL.
(§8) Membranes were mixed with SPA beads in a 1:1 ratio. […]
(§9) mg/well. Test compounds were dissolved in DMSO and further diluted in assay buffer (50 mM HEPES, pH 7.4, 1 mM CaCl2, 5 mM MgCl2, 0.1% ovalbumin, and 0.02% Tween-20).
(§10) Calcitonin (NEX422 PerkinElmer) was dissolved in assay buffer and added to the Optiplate at a final […]
(§11) prior to centrifugation (1500 rpm, 10 min). Samples were analyzed on TopCounter (Packard).
(§12) AMY3R Binding Assay. The binding assay was performed using SPA beads (RPNQ0001) from PerkinElmer and cell membranes containing either the hAMY3R or rAMY3R. BHK tk-ts 13 cells were […]
(§13) and cultured as described above. Membranes were prepared in the following way: the cells were rinsed with PBS and incubated with Versene for approximately 5 min before harvesting. The cells were flushed with PBS and the cell-suspension was centrifuged for 5 min at 1000 rpm. Cells were homogenized (Ultra Turrax) in a buffer containing 20 mM Na-HEPES and 10 mM EDTA (pH 7.4), and […]
(§14) The resulting pellet was re-suspended, homogenized, and
(§15) 7.4, buffer 2). The resulting pellet was re-suspended in buffer 2 and protein concentration was measured (BCA protein assay, Pierce). The homogenate was kept cold during the whole procedure.
(§16) The membranes were stored at –80 °C until use.
(§17) Membranes were mixed with SPA beads in a 1:1 ratio. The final concentration of SPA beads was 0.05 mg/well. Test compounds were dissolved in DMSO and further diluted in assay buffer (50 mM […]
(§18) rAMY (NEX448 PerkinElmer) was dissolved in assay buffer and added to the Optiplate at a final

[2] = molecular target: T2, rAMY3R (Rattus norvegicus, UniProt P32214+Q9JJ73); assay: scintillation proximity binding assay, rAMY3R membranes; parameters: expressed in transfected cells; host or cells: BHK tk-ts 13, transient co-transfection (FuGENE 6); details: for ratio rCTR/rAMY3R: ratio of binding IC50 values
T2 sequence (P32214 25-479 isoform P32214-2 limits assumed): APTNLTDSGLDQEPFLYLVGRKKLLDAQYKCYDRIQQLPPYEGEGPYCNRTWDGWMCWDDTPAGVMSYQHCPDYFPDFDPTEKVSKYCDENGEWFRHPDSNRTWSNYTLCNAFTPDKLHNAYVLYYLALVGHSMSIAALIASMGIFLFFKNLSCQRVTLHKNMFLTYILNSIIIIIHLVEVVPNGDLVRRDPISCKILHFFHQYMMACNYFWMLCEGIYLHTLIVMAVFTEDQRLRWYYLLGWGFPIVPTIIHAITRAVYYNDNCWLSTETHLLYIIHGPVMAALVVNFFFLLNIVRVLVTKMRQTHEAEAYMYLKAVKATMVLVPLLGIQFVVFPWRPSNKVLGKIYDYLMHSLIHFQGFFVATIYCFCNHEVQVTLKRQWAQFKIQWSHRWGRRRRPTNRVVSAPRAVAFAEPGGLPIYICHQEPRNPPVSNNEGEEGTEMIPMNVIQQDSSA
T2 sequence (Q9JJ73 23-147 partner): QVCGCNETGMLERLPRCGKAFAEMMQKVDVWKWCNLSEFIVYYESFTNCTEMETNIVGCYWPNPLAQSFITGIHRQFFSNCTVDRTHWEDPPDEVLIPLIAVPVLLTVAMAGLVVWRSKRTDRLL
Protocol: as §1, §2, §3, §4, §5, §6, §7, §8, §9, §10, §11, §12, §13, §14, §15, §16, §17, §18

[3] = molecular target: T1, hAMY3R; assay: cAMP-responsive element luciferase reporter assay, human AMY3R; format: cell-based; parameters: expressed in transfected cells; details: for ratio hCTR/hAMY3R: ratio of luciferase EC50 values; for EC50: luciferase (human receptor assay)
[4] = SPA binding assay, Tables S13 and S15
[5] = SPA, BHK cell membranes, 125I-rat amylin, 120 min 25 °C, read-out: hAMY3R IC50

CC[C@H](C)[C@H](NC(=O)[C@H](C)NC(=O)CNC(=O)[C@H](Cc1ccccc1)NC(=O)[C@H](CC(N)=O)NC(=O)[C@@H]1CCCN1C(=O)[C@H](CO)NC(=O)[C@H](CO)NC(=O)[C@H](Cc1c[nH]cn1)NC(=O)[C@H](CCCNC(=N)N)NC(=O)[C@H](CC(C)C)NC(=O)[C@H](Cc1ccccc1)NC(=O)[C@H](CC(=O)O)NC(=O)[C@H](C)NC(=O)[C@H](CC(C)C)NC(=O)[C@H](CCCNC(=N)N)NC(=O)[C@H](CCC(N)=O)NC(=O)[C@@H](NC(=O)[C@H](C)NC(=O)[C@@H]1CSSC[C@H](NC(=O)[C@@H](N)CCCCNC(=O)CC[C@H](NC(=O)CC[C@H](NC(=O)CCCCCCCCCCCCCCCCCCC(=O)O)C(=O)O)C(=O)O)C(=O)N[C@@H](CC(N)=O)C(=O)N[C@@H]([C@@H](C)O)C(=O)N[C@@H](C)C(=O)N[C@@H]([C@@H](C)O)C(=O)N1)[C@@H](C)O)C(=O)N1CCC[C@H]1C(=O)N[C@@H](CO)C(=O)N[C@@H](CO)C(=O)N[C@H](C(=O)N[C@@H](CC(N)=O)C(=O)N[C@H](C(=O)NCC(=O)N[C@@H](CO)C(=O)N[C@@H](CC(=O)O)C(=O)N[C@H](C(=O)N[C@@H](Cc1ccc(O)cc1)C(N)=O)[C@@H](C)O)C(C)C)[C@@H](C)O [Peptide 6] (H-K([γGlu-γGlu-C20 diacid])CNTATCATQRLADFLRHSSPNFGAIPSSTNVGSDTY-NH2; disulfide 2-7)
ratio hCTR/hAMY3R [1]: 55 | ratio rCTR/rAMY3R [2]: 447 | ratio hCTR/hAMY3R [3]: 15

CC(C)C[C@H](NC(=O)[C@H](CCCNC(=N)N)NC(=O)[C@H](CCC(N)=O)NC(=O)[C@@H](NC(=O)[C@H](C)NC(=O)[C@@H]1CSSC[C@H](NC(=O)[C@@H](N)CCCCNC(=O)CC[C@H](NC(=O)CC[C@H](NC(=O)CCCCCCCCCCCCCCCCCCC(=O)O)C(=O)O)C(=O)O)C(=O)N[C@@H](CC(N)=O)C(=O)N[C@@H]([C@@H](C)O)C(=O)N[C@@H](C)C(=O)N[C@@H]([C@@H](C)O)C(=O)N1)[C@@H](C)O)C(=O)N[C@@H](C)C(=O)N[C@@H](CC(=O)O)C(=O)N[C@@H](Cc1ccccc1)C(=O)N[C@@H](CC(C)C)C(=O)N[C@@H](CCCNC(=N)N)C(=O)N[C@@H](Cc1c[nH]cn1)C(=O)N[C@@H](CO)C(=O)N[C@@H](CO)C(=O)N[C@@H](CC(N)=O)C(=O)N1CCC[C@H]1C(=O)N[C@@H](Cc1ccccc1)C(=O)NCC(=O)N[C@@H](C)C(=O)N1CCC[C@H]1C(=O)N[C@@H](CC(C)C)C(=O)N[C@@H](CO)C(=O)N[C@@H](CO)C(=O)N[C@H](C(=O)N[C@@H](CC(N)=O)C(=O)N[C@H](C(=O)NCC(=O)N[C@@H](CO)C(=O)N[C@@H](CC(=O)O)C(=O)N[C@H](C(=O)N[C@@H](Cc1ccc(O)cc1)C(N)=O)[C@@H](C)O)C(C)C)[C@@H](C)O [Peptide 7] (H-K([γGlu-γGlu-C20 diacid])CNTATCATQRLADFLRHSSNPFGAPLSSTNVGSDTY-NH2; disulfide 2-7)
hAMY3R pIC50 [1, 4]: 8.95 | IC50 [1, 5]: 1.12 nM | ratio hCTR/hAMY3R [1]: 10 | rAMY3R pIC50 [2, 4]: 9.00 | ratio rCTR/rAMY3R [2]: 7.5 | ratio hCTR/hAMY3R [3]: 6.9

CC[C@H](C)[C@H](NC(=O)[C@@H]1CCCN1C(=O)CNC(=O)[C@H](Cc1ccccc1)NC(=O)[C@H](CC(N)=O)NC(=O)[C@@H]1CCCN1C(=O)[C@H](CO)NC(=O)[C@H](CO)NC(=O)[C@H](Cc1c[nH]cn1)NC(=O)[C@H](CCCNC(=N)N)NC(=O)[C@H](CC(C)C)NC(=O)[C@H](Cc1ccccc1)NC(=O)[C@H](CC(=O)O)NC(=O)[C@H](C)NC(=O)[C@H](CC(C)C)NC(=O)[C@H](CCCNC(=N)N)NC(=O)[C@H](CCC(N)=O)NC(=O)[C@@H](NC(=O)[C@H](C)NC(=O)[C@@H]1CSSC[C@H](NC(=O)[C@@H](N)CCCCNC(=O)CC[C@H](NC(=O)CC[C@H](NC(=O)CCCCCCCCCCCCCCCCCCC(=O)O)C(=O)O)C(=O)O)C(=O)N[C@@H](CC(N)=O)C(=O)N[C@@H]([C@@H](C)O)C(=O)N[C@@H](C)C(=O)N[C@@H]([C@@H](C)O)C(=O)N1)[C@@H](C)O)C(=O)N[C@@H](CC(C)C)C(=O)N[C@@H](CO)C(=O)N[C@@H](CO)C(=O)N[C@H](C(=O)N[C@@H](CC(N)=O)C(=O)N[C@H](C(=O)NCC(=O)N[C@@H](CO)C(=O)N[C@@H](CC(=O)O)C(=O)N[C@H](C(=O)N[C@@H](Cc1ccc(O)cc1)C(N)=O)[C@@H](C)O)C(C)C)[C@@H](C)O [Peptide 3] (H-K([γGlu-γGlu-C20 diacid])CNTATCATQRLADFLRHSSPNFGPILSSTNVGSDTY-NH2; disulfide 2-7)
IC50 ([1]; SPA binding assay, Tables S13 and S15, read-out: hAMY3R pIC50 (converted)): 5.13 nM | IC50 [1, 5]: 5.09 nM | ratio hCTR/hAMY3R [1]: 14 | IC50 ([2]; SPA binding assay, Tables S13 and S15, read-out: rAMY3R pIC50 (converted)): 4.68 nM | IC50 ([2]; SPA, BHK cell membranes, 125I-rat amylin, 120 min 25 °C, read-out: rAMY3R IC50): 4.69 nM | ratio rCTR/rAMY3R [2]: 76 | EC50 ([3]; Tables S12 and S14, read-out: hAMY3R pEC50 (converted)): 0.316 nM | EC50 ([3]; BHK cells stably expressing hCTR+RAMP3 and CRE-luciferase, 3 h, 37 °C, 10% FBS, read-out: hAMY3R EC50): 0.319 nM | ratio hCTR/hAMY3R [3]: 9.4
